Data taken from patent US20220264878A1, “HERBICIDAL COMPOSITION CONTAINING R-TYPE PYRIDYLOXY CARBOXYLIC ACID DERIVATIVE AND USE THEREOF” (Qingdao Kingagroot Chemical Compound Co., Ltd., priority 2019, published 2022).
Where two headings read alike, the source gives them in different places.

Columns and labels:
Format in all cases: in vivo
Amaranthus retroflexus [1] = test: Post-emergence foliage spray, pot culture, fresh weight inhibition (Tables 151-206; 20 days)
Method: (§1) The above weeds were cultivated by a pot culture method. […] Full and uniform weed seeds were selected, soaked in warm water at 25° C. for 6 hours, and germinated in a 28° C. biochemical incubator (darkness). The weed seeds that had just germinatedwere evenly placed on the surface of the soil and then covered with 0.5-1 cm soil according to the sizes of seeds.
(§2) The technical materials were all dissolved in acetone, and diluted with an aqueous solution containing 0.1% emulsifier Tween-80. The dilution is performed as required.
(§3) A ratio of the active ingredient A to the active ingredient B and amounts thereof in each group depends on the characteristics and toxicity of the two agents, as well as the main application purpose of a corresponding formulation. Based on the pre-tests in this study, the dosage of the active ingredient A and B applied alone and in combination were shown in the tables. Water containing the solvent and emulsifier same with the above groups but free of the agents was used as a blank control.
(§4) In the stage of weeds with 3˜4 leaves, the weeds were thinned out to maintain 15 weeds per pot and 45 weeds for each treatment, then continued to be cultured to 4˜5 leaves stage of grassy weeds, 5˜6 leaves stage of broadleaf weeds, and treated.
(§5) The well-cultured weeds were evenly placed on a platform with an area of 0.5 m^2, and a solution of agents was sprayed on the stems and leaves thereof by the 3WP-2000-type walking spray tower at a dosage of 450 kg/ha and at a spray pressure of 0.3 MPa. After all the solution was sprayed, the valve was closed. After 30 seconds, the door of the spray tower was opened, and the nutritional bowl was taken out. Then the valve was opened, and the spray tube was cleaned by spraying 50 ml of water.
(§6) A pot-culture method was employed. For the cultivation of weeds, please refer to the Section 1.1), and “Pesticide guidelines for laboratory bioactivity tests—herbicides”. As to a method for applying agents, please refer to the section 2.3.2), that is, a foliage treatment was employed. After the treatment, the weeds were routinely cultured in a greenhouse.
(§7) A method for investigating absolute number was employed, wherein whole seedlings of survival weeds were cut off with a blade along the soil surface, and the fresh weight of the weeds was weighed with an analytical balance. For dead weeds, the fresh weight thereof was zero.
(§8) Wherein, in the formula, X represented the fresh weight inhibition rate of the active ingredient A in a dosage of P, and Y represented the fresh weight inhibition rate of the active ingredient B in a dosage of Q.

Capsella bursa-pastoris = test: as above; details: Capsella bursa-pastoris, 480 h, read-out: Control effect (%) of A applied alone in corresponding dose
Method: as §1, §2, §3, §4, §5, §6, §7, §8

Digitaria sanguinalis = test: as above; details: Digitaria sanguinalis, 480 h, 20 days, read-out: Control effect (%) of A applied alone in corresponding dose; for pest or weed control at 75 g/ha: A 75 g a.i./ha; for pest or weed control at 150 g/ha: A 150 g a.i./ha
Method: (§9) Table 151-206: Digitaria sanguinalis, Amaranthus retroflexus, Conyza Canadensis, Capsella bursa-pastoris, Eleusine indica were collected in Huangdao of Shandong Province, Sinapis arvensis were collected in Sixian of Anhui Province, Alopecurus japonicus were collected in Tianchang of Anhui Province, Veronica didyma were collected in Siyang of Jiangsu Province.
as §1
(§10) The culture was carried out in a controllable sunlight greenhouse at 20 to 30° C., in natural light, and relative humidity of 57% to 72%.
as §2, §3
(§11) Table 1-48, 51-98, 101-148, 151-206: […] per treatment, that is, a total of 60 weeds were treated in one treatment.
as §4, with “Table 151-206: The agents were used for only once in the experiment. In” for “In”
as §5, §6, §7
(§12) Table 151-206: The investigation was performed after 20 days of the treatment for only once.
(§13) Theoretical fresh weight inhibition rate of a combination of two active ingredients in each group was calculated by the Gowing method (E0=X+Y−X*Y/100), and then compared with an actually measured inhibition rate (E), thereby effect of the combination (hereafter referred to as combined effect) on weeds was evaluated: the value of E-E0, which was greater than 10%, corresponded to a synergistic effect, the value of E-E0, which was less than −10%, corresponded to an antagonistic effect, and the value of E-E0, which was from −10% to 10%, corresponded to an additional effect.

Conyza Canadensis = test: as above
Method: as §9, §1, §10, §2, §3, §11
as §4, with “Table 151-206: The agents were used for only once in the experiment. In” for “In”
as §5, §6, §7, §12, §13

Alopecurus japonicus = test: as above
Method: as §9, §1, §10, §2, §3, §11
as §4, with “Table 151-206: The agents were used for only once in the experiment. In” for “In”
as §5, §6, §7, §12, §13

Veronica didyma = test: as above
Method: as §9, §1, §10, §2, §3, §11
as §4, with “Table 151-206: The agents were used for only once in the experiment. In” for “In”
as §5, §6, §7, §12, §13

Sinapis arvensis = test: as above
Method: as §9, §1, §10, §2, §3, §11
as §4, with “Table 151-206: The agents were used for only once in the experiment. In” for “In”
as §5, §6, §7, §12, §13

Eleusine indica = test: as above
Method: as §9, §1, §10, §2, §3, §11
as §4, with “Table 151-206: The agents were used for only once in the experiment. In” for “In”
as §5, §6, §7, §12, §13

Acalypha australis = test: Post-emergence foliage spray, pot culture, fresh weight inhibition (Tables 1-48, 51-98, 101-148; 24 days)
Outline: (§14)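 Greenhouse pot plants (20–30 °C, natural light, 57–72% RH) were sprayed once on foliage at 450 kg/ha and 0.3 MPa, at the 5–6-leaf (grass) or 6–7-leaf (broadleaf) stage. Compounds were in acetone diluted with 0.1% Tween-80 water. Surviving shoots were weighed at 24 days; dead plants counted as zero.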

Amaranthus retroflexus [2] = test: as above
Outline: as §14

Chenopodium album = test: as above; details: Table 95
Outline: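 Pot-grown weeds were thinned to 15 per pot (45 per treatment) and sprayed on foliage at the 5–6-leaf stage for grasses or the 6–7-leaf stage for broadleaves. Agents were dissolved in acetone with 0.1% Tween-80 and applied at 450 kg/ha spray volume and 0.3 MPa. Plants were then kept in a greenhouse. Above-ground fresh weight of survivors, with dead plants counted as zero, gave inhibition versus a solvent/emulsifier blank.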

[3] = A alone 75 g a.i./ha, 20 days after treatment
[4] = A alone 150 g a.i./ha, 20 days after treatment

COC(=O)[C@@H](C)Oc1nc(F)c(Cl)c(N)c1Cl [Compound A67]
Control effect (%) of A applied alone in corresponding dose (Amaranthus retroflexus [1]; A 75 g a.i./ha, 20 days): 31.7% | Control effect (%) of A applied alone in corresponding dose (Amaranthus retroflexus [1]; A 150 g a.i./ha, 20 days): 63.9% | pest or weed control at 75 g/ha (Capsella bursa-pastoris; A 75 g a.i./ha, 20 days): 51.4% | pest or weed control at 150 g/ha (Capsella bursa-pastoris; A 150 g a.i./ha, 20 days): 75.6% | pest or weed control at 75 g/ha (Digitaria sanguinalis): 23.4% | pest or weed control at 150 g/ha (Digitaria sanguinalis): 62.2% | Control effect (%) of A applied alone in corresponding dose (Conyza Canadensis; A 75 g a.i./ha, 20 days): 45.9% | Control effect (%) of A applied alone in corresponding dose (Conyza Canadensis; A 150 g a.i./ha, 20 days): 65.6% | Control effect (%) of A applied alone in corresponding dose (Alopecurus japonicus; A 75 g a.i./ha, 20 days): 28.7% | Control effect (%) of A applied alone in corresponding dose (Alopecurus japonicus; A 150 g a.i./ha, 20 days): 52.4% | Control effect (%) of A applied alone in corresponding dose (Veronica didyma; A 75 g a.i./ha, 20 days): 23.2% | Control effect (%) of A applied alone in corresponding dose (Veronica didyma; A 150 g a.i./ha, 20 days): 43.1% | Control effect (%) of A applied alone in corresponding dose (Sinapis arvensis; A 75 g a.i./ha, 20 days): 45.7% | Control effect (%) of A applied alone in corresponding dose (Sinapis arvensis; A 150 g a.i./ha, 20 days): 72.8% | Control effect (%) of A applied alone in corresponding dose (Eleusine indica; A 75 g a.i./ha, 20 days): 42.5% | Control effect (%) of A applied alone in corresponding dose (Eleusine indica; A 150 g a.i./ha, 20 days): 75.3%

C[C@@H](Oc1nc(F)c(Cl)c(N)c1Cl)C(=O)OCc1ccco1 [Compound A163]
Control effect (%) of A applied alone in corresponding dose (Amaranthus retroflexus [1]; [3]): 26.6% | Control effect (%) of A applied alone in corresponding dose (Amaranthus retroflexus [1]; [4]): 53.7% | pest or weed control at 75 g/ha (Capsella bursa-pastoris; [3]): 41.1% | pest or weed control at 150 g/ha (Capsella bursa-pastoris; [4]): 60.5% | pest or weed control at 75 g/ha (Digitaria sanguinalis): 16.6% | pest or weed control at 150 g/ha (Digitaria sanguinalis): 45.4% | Control effect (%) of A applied alone in corresponding dose (Conyza Canadensis; [3]): 39.0% | Control effect (%) of A applied alone in corresponding dose (Conyza Canadensis; [4]): 55.8% | Control effect (%) of A applied alone in corresponding dose (Alopecurus japonicus; [3]): 24.1% | Control effect (%) of A applied alone in corresponding dose (Alopecurus japonicus; [4]): 44.0% | Control effect (%) of A applied alone in corresponding dose (Veronica didyma; [3]): 18.6% | Control effect (%) of A applied alone in corresponding dose (Veronica didyma; [4]): 34.5% | Control effect (%) of A applied alone in corresponding dose (Sinapis arvensis; [3]): 29.6% | Control effect (%) of A applied alone in corresponding dose (Sinapis arvensis; [4]): 47.2% | Control effect (%) of A applied alone in corresponding dose (Eleusine indica; [3]): 31.7% | Control effect (%) of A applied alone in corresponding dose (Eleusine indica; [4]): 56.0%

O=C(O)c1cc(Oc2ccc(C(F)(F)F)cc2Cl)ccc1[N+](=O)[O-] [acifluorfen-sodium]
Control effect (%) of B applied alone in corresponding dose (Acalypha australis; B 37.5 g a.i./ha): 5.8% | Control effect (%) of B applied alone in corresponding dose (Acalypha australis; B 75 g a.i./ha): 11.6% | Control effect (%) of B applied alone in corresponding dose (Acalypha australis; B 150 g a.i./ha): 46.6% | Control effect (%) of B applied alone in corresponding dose (Acalypha australis; B 300 g a.i./ha): 85.3% | Control effect (%) of B applied alone in corresponding dose (Amaranthus retroflexus [2]; acifluorfen-sodium 37.5 g a.i./ha): 4.4% | Control effect (%) of B applied alone in corresponding dose (Amaranthus retroflexus [2]; acifluorfen-sodium 75 g a.i./ha): 10.3% | Control effect (%) of B applied alone in corresponding dose (Amaranthus retroflexus [2]; acifluorfen-sodium 150 g a.i./ha): 45.1% | Control effect (%) of B applied alone in corresponding dose (Amaranthus retroflexus [2]; acifluorfen-sodium 300 g a.i./ha): 85.0% | Control effect (%) of B applied alone in corresponding dose (Chenopodium album; 37.5 g a.i./ha): 2.0% | Control effect (%) of B applied alone in corresponding dose (Chenopodium album; 75 g a.i./ha): 13.7% | Control effect (%) of B applied alone in corresponding dose (Chenopodium album; 150 g a.i./ha): 45.0% | Control effect (%) of B applied alone in corresponding dose (Chenopodium album; 300 g a.i./ha): 81.0%
